Assay results reported in article PMC11435625, “In Vitro Hepatic Clearance Evaluations of Per- and Polyfluoroalkyl Substances (PFAS) across Multiple Structural Categories” (Toxics, 2024).

Columns and labels:
plasma protein = conditions: fraction unbound in plasma, input for IVIVE calculations; cited from earlier work
[1] = tested on: pooled primary human hepatocyte suspensions; assay: Hepatic clearance assay (substrate depletion, LC-MS); conditions: in µL/min/10^6 cells; for CLint for HTTK: CLint value carried into HTTK/IVIVE
Procedure: The rate of hepatic clearance was determined as previously described for a set of PFAS [11]. Analysis was conducted across two laboratories at the Division of Translational Toxicology (DTT) at the National Institute of Environmental Health Sciences (NIEHS) and the Center for Computational Toxicology and Exposure at the USEPA. The PFAS analyzed in each lab can be found in the Supplementary Materials.
The hepatic clearance assay was performed at both the DTT and EPA laboratories as described below. The pooled human hepatocyte suspensions used in this work were purchased commercially and meet the ethical and scientific standards described in the Human Ethics Rule (40 CFR 26). The suspensions were prepared from hepatocytes obtained from de-identified donors by a commercial vendor.
PFAS stock solutions prepared in DMSO were added to prewarmed William’s E medium to make a 2X working stock solution (2 µM). […] The working stock solutions were then transferred to a 96-well polypropylene plate and placed in an incubator at 37 °C with 5% carbon dioxide prior to adding cells. Cryopreserved pooled primary human hepatocyte suspensions (50-donor pool, mixed gender; BioIVT; Westbury, NY, USA) were thawed and transferred to vials containing hepatocyte thawing medium. After centrifuging for 5–10 min at 100× g, thawing medium was removed, being careful not to disturb the cell pellet. The primary human hepatocytes were then resuspended in pre-warmed complete Williams E medium to achieve a cell density of ~1.0 × 10^6 viable cells/mL as determined by Trypan Blue exclusion. Cells were then added to the 96-well incubation plates containing PFAS to achieve a final density of ~0.5 × 10^6 viable cells/mL and a 1 μM assay concentration (Ctest), then placed in incubator on a shaker at 300 rpm. Triplicate samples were removed from the incubator at time points ranging from 0 to 240 min and quenched with a total crash in 2–3 volumes of ice-cold acetonitrile. Samples were spun at 4000× g for 20 min, and supernatants were transferred to new tubes and stored at <−70 °C until analysis. Media-only (no cell) and/or heat-inactivated hepatocytes were included as negative controls for each chemical to evaluate and estimate chemical loss due to nonmetabolic processes (e.g., hydrolysis). Phenacetin was included in all runs as an assay reference compound; EPA also included propranolol as an additional reference compound.
Assay samples were diluted in mobile phase and analyzed using a Thermo Vanquish UPLC system with a Thermo Hypersil Gold aQ C18 column (100 × 2.1 mm, 1.9 […], Thermo Fisher Scientific Inc.) coupled to a Q Exactive Plus mass spectrometer. Gradient elution was used in the chromatographic separations using water with 20 mM ammonium acetate (mobile phase A) and methanol (mobile phase B), with the following gradient program: 0.5–7 min, 30%–90% B; 7–8 min, 90% B; 8–9 min, 90%–30% B; and 9–10 min, 30% B. The first minute of each injection was diverted to waste to avoid introduction of excessive salts from incubation medium. Analysis was detected in negative ion mode. Samples were quantified against an external, matrix-matched calibration curve. Additional methodologic information is available in Table S2.
To perform SPE, a positive-pressure manifold was employed along with Oasis WAX µElution plates and Oasis HLB 30 mg plates (Waters, Milford, MA, USA) for PFAS and positive-control extraction, respectively. […] The sorbent was then washed with 1% formic acid and water. Samples were eluted in 2% ammonia in methanol for analysis. Similarly, HLB plates were conditioned with methanol and water before sample was loaded onto the sorbent. The wells were then washed with 5% methanol in water and water before elution in methanol. For samples not undergoing SPE, the supernatant of the crashed assay sample was diluted in mobile phase prior to analysis. The first 1.5 min of the run was diverted to waste to prevent salt contamination.

[2] = IVIVE: steady-state concentration (Css), generic HTTK model; parameters: species or system human; conditions: for Css (mg/L) / Css (uM): Assuming 1 mg/kg/day dose rate, BW 70 kg; for CLhep: QL 1500000 uL/min; for Fub: fub=fup/(B:P), Fub set to 1 if needed; for CLint: scaled to whole liver: HPGL 110 mill cells/g, Vl 1596 g
Procedure: IVIVE was performed as previously described to calculate human steady-state concentrations (Css). Briefly, experimental plasma protein binding data presented elsewhere were transformed to fraction unbound in blood using blood-to-plasma partitioning values. Experimental Clint values generated here are used in conjunction with relevant liver scalars to scale up to estimate whole liver clearance. […] Once Css values were established, these were used with the PFAS-specific in vitro POD data to calculate the administered equivalent doses (AEDs) using reverse dosimetry. […] The fifth-percentile AC50 value was used to define the in vitro POD. All relevant inputs, scalars, and calculations are provided in Supplementary Information, as indicated in the results.

[3] = pooled primary human hepatocyte suspensions

Structure (SMILES)	Mean fu (plasma protein)	CLint for HTTK [1]	in vitro CLint exp assay [1, 3]	Css (mg/L) [2]	Css (uM) [2]	CLhep [2]	Fub [2]	CLint [2]	Unadj Clint ([1]; unadjusted hepatic intrinsic clearance, pooled primary human hepatocyte suspensions, Table S4)
O=C(O)C(F)(F)C(F)(F)C(F)(F)C(F)(F)C(F)(F)C(F)(F)C(F)F [8H-Perfluorooctanoic acid (8H-PFOA)]	0.0021	0	0	114.93 mg/L	290.23 µM	0.000 L/h	0.003818	0 µL/min	–
O=S(=O)([O-])C(F)(F)C(F)(F)C(F)(F)C(F)(F)C(F)(F)C(F)(F)C(F)(F)C(F)(F)F.[K+]	0.004	0	2.96	60.34 mg/L	120.69 µM	0.000 L/h	0.007273	0 µL/min	–
O=S(=O)(O)C(F)(F)C(F)(F)C(F)(F)C(F)(F)C(F)(F)C(F)(F)C(F)(F)C(F)(F)F [Perfluorooctane sulfonate (PFOS)]	0.0049	0	0	49.25 mg/L	98.52 µM	0.000 L/h	0.008909	0 µL/min	–
CNS(=O)(=O)C(F)(F)C(F)(F)C(F)(F)C(F)(F)C(F)(F)C(F)(F)C(F)(F)C(F)(F)F	0.0117	23.23	23.23	0.58 mg/L	1.13 µM	4.921 L/h	0.02127	4078259 µL/min	–
O=C(O)C(F)(F)C(F)(F)C(F)F [4H-perfluorobutanoic acid (4H-PFBA)]	0.1714	0	0	1.41 mg/L	7.18 µM	0.000 L/h	0.3116	0 µL/min	–
O=S(=O)([O-])C(F)(F)C(F)(F)C(F)(F)C(F)(F)C(F)(F)C(F)(F)F.[K+]	0.001	0	0	241.34 mg/L	603.44 µM	0.000 L/h	0.001818	0 µL/min	–
O=S(=O)(O)C(F)(F)C(F)(F)C(F)(F)C(F)(F)C(F)(F)C(F)(F)C(F)(F)F [Perfluoroheptanesulfonic acid (PFHpS)]	0.0006	0	0	402.24 mg/L	893.98 µM	0.000 L/h	0.001091	0 µL/min	–
O=C(Cl)C(F)(F)C(F)(F)C(F)(F)C(F)(F)C(F)(F)C(F)(F)F [Perfluoroheptanoyl chloride (PFHpA-Cl)]	0.0017	0	0	180.82 mg/L	473.43 µM	0.000 L/h	0.002427	0 µL/min	–
O=C(O)C(F)(F)C(F)(F)F [Perfluoropropanoic acid (PFPrA)]	0.3108	0	0	0.78 mg/L	4.74 µM	0.000 L/h	0.5651	0 µL/min	–
C[N+](C)(C)CCCNS(=O)(=O)C(F)(F)C(F)(F)C(F)(F)C(F)(F)C(F)(F)C(F)(F)C(F)(F)C(F)(F)F.[I-]	0.0126	0	0	19.15 mg/L	31.97 µM	0.000 L/h	0.02291	0 µL/min	4.28
N.O=C(O)C(F)(F)C(F)(F)C(F)(F)C(F)(F)C(F)(F)C(F)(F)C(F)(F)F [Ammonium perfluorooctanoate (NH4PFOA)]	0.0007	2.06	2.06	81.36 mg/L	196.53 µM	0.028 L/h	0.001273	361654 µL/min	–
O=C(O)C(F)(F)C(F)(F)C(F)(F)OC(F)(C(F)(F)F)C(F)(F)F	0.0021	5.78	5.78	11.42 mg/L	30.05 µM	0.232 L/h	0.003818	1014737 µL/min	–
NS(=O)(=O)C(F)(F)C(F)(F)C(F)(F)C(F)(F)C(F)(F)C(F)(F)F [Perfluorohexanesulfonamide (PFHxSA)]	0.0004	0	0	603.36 mg/L	1512.33 µM	0.000 L/h	0.0007273	0 µL/min	–
O=C(Cl)C(F)(F)C(F)(F)C(F)(F)C(F)(F)C(F)(F)C(F)(F)C(F)(F)F	0.0001	0	0	3584.17 mg/L	8297.84 µM	0.000 L/h	0.0001224	0 µL/min	–
O=C(O)C(F)(F)C(F)(F)C(F)(F)C(F)(F)C(F)(F)C(F)(F)C(F)(F)C(F)(F)C(F)(F)C(F)(F)C(F)(F)C(F)(F)C(F)(F)F [Perfluorotetradecanoic acid (PFTeA)]	0.0271	0	0	8.91 mg/L	12.47 µM	0.000 L/h	0.04927	0 µL/min	–
O=S(=O)(Cl)C(F)(F)C(F)(F)C(F)(F)C(F)(F)C(F)(F)C(F)(F)C(F)(F)C(F)(F)F	0.0109	0	0.00	41.78 mg/L	80.68 µM	0.000 L/h	0.0105	0 µL/min	–
O=S(=O)(O)C(F)(F)C(F)(F)C(F)(F)C(F)(F)C(F)(F)C(F)(F)F [Perfluorohexanesulfonic acid (PFHxS)]	0.0009	0	0	268.16 mg/L	670.49 µM	0.000 L/h	0.001636	0 µL/min	–
O=C(O)CCC(F)(F)C(F)(F)C(F)(F)F	0.0518	0	0	4.66 mg/L	19.25 µM	0.000 L/h	0.09418	0 µL/min	–
